Consider 10 compounds from ChEMBL document CHEMBL1201862, “PubChem BioAssay data set” (2004).

Each structure is given as a SMILES string.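 Exposure lasted 48 hours, with cells grown in 96-well plates and compounds tested at five concentrations. GI50 is the concentration that inhibits growth by half.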 Calls of active or inactive are those of the source. Rule as the data show it: active = GI50 up to about 1.1 µM and inactive = higher.

What all share (assay): NCI tumour cell line growth inhibition, 48 h
For assay [1], the system named is TK-10.
Assay [2] concerns RXF 393.
Assay [3] has as its system SF-268.
Assay [4] deals with PC-3.
The test system of assay [5] is SNB-19.
Assay [6] relates to SF-539.
Assay [7] relates to HL-60.
For assay [8], the system named is UACC-62.
Assay [9] has as its system SK-MEL-28.
Assay [10] concerns SN12C.
In assay [11] the test system is NCI-H460.
Assay [12] concerns MDA-N.
In assay [13] the test system is MOLT-4.
For assay [14], the system named is NCI-H522.
The test system of assay [15] is OVCAR-3.
Assay [16] deals with HCC 2998.
For assay [17], the system named is KM12.
Assay [18] concerns ACHN.
For assay [19], the system named is K562.
Assay [20] relates to 786-0.

Take `CCCCCCCCCCCC(=O)N(CCCCCCCCC)CC(O)C(O)C(OC1OC(CO)C(O)C(O)C1O)C(O)CO` (centres undefined): the GI50 in [1] was 15.2 µM (inactive); in assay [2], 20.7 µM (inactive); in assay [3], 19.4 µM (inactive); in assay [4], 19.2 µM (inactive); in assay [5], 20.6 µM (inactive); in assay [6] it was 21.4 µM (inactive). Besides, the GI50 was 25.6 µM (inactive) in [7]; 17.7 µM (inactive) in assay [8]; 19.2 µM (inactive) in [9]; 19.1 µM (inactive) in assay [10]; 18.1 µM (inactive) in assay [11]; 20.4 µM (inactive) in [12]. In addition, the GI50 in assay [13] is 23.2 µM (inactive); in assay [14], 22.1 µM (inactive); in [15], 20.2 µM (inactive); in assay [16] it was 16.9 µM (inactive); in [17] it was 16.7 µM (inactive); in [18] it was 17.7 µM (inactive). Further, the GI50 in assay [19] is 26.9 µM (inactive); in [20] it was 17.5 µM (inactive).

Consider `COc1c2c(cc3c1OCO3)[C@]13C=C[C@H](OC)C[C@H]1N(C2)CC3O` (some centres undefined), for which the GI50 in assay [1], in [2], in assay [3], in assay [4], in assay [5] and in assay [6] was > 100 µM (inactive) in each case. Further, the GI50 in assay [7], in [8], in assay [9], in [10], in assay [11] and in [12] was > 100 µM (inactive) in each case. For the same compound, the GI50 in assay [13] is 99.1 µM (inactive); in assay [14], > 100 µM (inactive); in assay [15], > 100 µM (inactive); in assay [16], > 100 µM (inactive); in assay [17] it was > 100 µM (inactive); in [18], > 100 µM (inactive). Also, the GI50 in [20] is > 100 µM (inactive).

In the case of `c1ccc(C(c2cccc3c2ccc2ccccc23)C(c2ccccc2)c2cccc3c2ccc2ccccc23)cc1` (centres undefined), the GI50 in assay [1], in assay [2], in [3], in [4], in [5] and in [6] was > 100 µM (inactive) each time. In addition, the GI50 in [7] is 65.8 µM (inactive); in [8], > 100 µM (inactive); in [9], > 100 µM (inactive); in [10], > 100 µM (inactive); in assay [11], > 100 µM (inactive); in assay [12], > 100 µM (inactive). Moreover, the GI50 in assay [13], in assay [14], in [15], in assay [16], in [17] and in assay [18] was > 100 µM (inactive) throughout. Besides, the GI50 in assay [19] and in assay [20] was > 100 µM (inactive) throughout.

Regarding `COCC(=O)[C@]1(O)Cc2c(O)c3c(c(O)c2[C@@H](OC2CC(N)C(O)C(C)O2)C1)C(=O)c1c(OC)cccc1C3=O` (some centres undefined), the GI50 in [1] is 0.431 µM (active); in [2], 0.0834 µM (active); in assay [3] it was 0.0351 µM (active); in assay [4] it was 0.0791 µM (active); in assay [5], 0.0889 µM (active); in assay [6] it was 0.043 µM (active). For the same compound, the GI50 was 0.0188 µM (active) in [7]; 0.0545 µM (active) in [8]; 0.0935 µM (active) in assay [9]; 0.0285 µM (active) in assay [10]; 0.0235 µM (active) in assay [11]; 0.0767 µM (active) in [12]. For the same compound, the GI50 in assay [13] is 0.014 µM (active); in assay [14], 0.0255 µM (active); in assay [15] it was 0.115 µM (active); in assay [16] it was 0.14 µM (active); in assay [17], 0.0564 µM (active); in [18] it was 0.0703 µM (active). Also, the GI50 is 0.0124 µM (active) in assay [19] and 0.0373 µM (active) in assay [20].

With `CCOC(=O)NC(Nc1ccc(C(=O)O)cc1)(C(F)(F)F)C(F)(F)F`, the GI50 in assay [1] was > 100 µM (inactive); in [2], 60.8 µM (inactive); in assay [3], > 100 µM (inactive); in assay [4] it was > 100 µM (inactive); in assay [5], > 100 µM (inactive); in [6] it was > 100 µM (inactive). Besides, the GI50 in assay [7], in assay [8], in assay [9], in assay [10], in assay [11] and in assay [12] was > 100 µM (inactive) in each case. For the same compound, the GI50 in [13], in assay [14], in [15], in assay [16], in assay [17] and in assay [18] was > 100 µM (inactive) in each case. Moreover, the GI50 in assay [19] and in [20] was > 100 µM (inactive) throughout.

Take `CC(=O)NC(Cc1ccccc1)NC(=O)O` (centres undefined): the GI50 in [1], in assay [2], in assay [3], in assay [4], in assay [5] and in assay [6] was > 100 µM (inactive) each time. For the same compound, the GI50 in [7], in assay [8], in assay [9], in assay [10], in assay [11] and in assay [12] was > 100 µM (inactive) throughout. The GI50 in assay [13], in [14], in assay [15], in assay [16], in assay [17] and in assay [18] was > 100 µM (inactive) throughout. Moreover, the GI50 in assay [19] and in [20] was > 100 µM (inactive) throughout.

As for `Cc1csc(-c2cn(C)c3c2C(=O)C(=N)C=C3O)n1`, the GI50 in [1] was 46.1 µM (inactive); in [2] it was 54.1 µM (inactive); in [3], 15.8 µM (inactive); in [4], 7.01 µM (inactive); in assay [5], 7.38 µM (inactive); in assay [6], 5.01 µM (inactive). In addition, the GI50 in assay [7] was 1.58 µM (inactive); in assay [8] it was 7.59 µM (inactive); in assay [9], 20.3 µM (inactive); in assay [10], 39.1 µM (inactive); in [11], 3.97 µM (inactive); in [12] it was 14.1 µM (inactive). Moreover, the GI50 in assay [13] is 3.18 µM (inactive); in [14], 13.6 µM (inactive); in assay [15], 6.41 µM (inactive); in [16] it was 5 µM (inactive); in [17], 11.2 µM (inactive); in assay [18], 3.71 µM (inactive). Besides, the GI50 is 6.28 µM (inactive) in [19] and 32.4 µM (inactive) in assay [20].

Consider `CC(C)=CC(Cc1ccccc1)S(=O)(=O)c1nc2ccccc2s1` (centres undefined), for which the GI50 in assay [1] is 20 µM (inactive); in [2] it was 19.7 µM (inactive); in assay [3], 15.6 µM (inactive); in assay [4], 16.7 µM (inactive); in assay [5], 17.4 µM (inactive); in assay [6], 16.2 µM (inactive). The GI50 is 2.84 µM (inactive) in assay [7]; 17.2 µM (inactive) in assay [8]; 16.1 µM (inactive) in assay [9]; 12 µM (inactive) in assay [10]; 21.3 µM (inactive) in assay [11]; 8.13 µM (inactive) in [12]. Besides, the GI50 in [13] was 2.98 µM (inactive); in assay [14], 11.3 µM (inactive); in assay [15], 15.3 µM (inactive); in assay [16], 19.2 µM (inactive); in [17], 18.7 µM (inactive); in assay [18], 18.8 µM (inactive). Further, the GI50 is 12.6 µM (inactive) in [19] and 14.6 µM (inactive) in [20].

As for `OC[C@H]1CCCC1O` (some centres undefined), the GI50 in assay [1], in assay [2], in [3], in [4], in [5] and in [6] was > 100 µM (inactive) throughout. The GI50 in [7], in [8], in assay [9], in assay [10], in assay [11] and in assay [12] was > 100 µM (inactive) in each case. Besides, the GI50 in assay [13], in assay [14], in [15], in [16], in assay [17] and in assay [18] was > 100 µM (inactive) in each case. Also, the GI50 in assay [19] and in assay [20] was > 100 µM (inactive) throughout.

For `Cc1nnc(N)s/c1=N/O`, the GI50 in [1], in assay [2], in assay [3], in assay [4], in [5] and in [6] was > 100 µM (inactive) in each case. Besides, the GI50 in [7], in assay [8], in assay [9], in assay [10], in [11] and in assay [12] was > 100 µM (inactive) in each case. For the same compound, the GI50 in assay [13], in assay [14], in assay [15], in assay [16], in assay [17] and in assay [18] was > 100 µM (inactive) each time. The GI50 in assay [19] and in assay [20] was > 100 µM (inactive) in each case.
